No end group written: not given here.
Key:
[1] = test system: release of norepinephrine (NE) from the hypothalamus; assay: norepinephrine release and content, static in vitro incubation of hypothalami, HPLC-EC; type: cell-based, Sprague-Dawley rats; conditions: for content of NE in the hypothalami at the end of the experiment: control 1104±588
Experimental: (§1) Four- to six-month old male Sprague-Dawley rats were obtained from Amitech (Omaha, Nebr.). These rats were housed in groups in air-conditioned (23±2° C.) and light controlled (lights on from 0700-1900 hours) animal rooms. They were provided rat chow and water ad libitum.
(§2) On the day of the experiment, the rats were sacrificed between 1200-1300 hrs. The brains were removed immediately and the hypothalami were dissected out using the following boundaries: the posterior part of the optic chiasmas the anterior limit, the anterior part of the mammillary bodies as the posterior limit, and the lateral hypothalamic sulci as the lateral limits (Palazzolo et al., Life Sci. 47: 2105-2109 (1990); Palazzolo et al., Life Sci. 51: 1797-1802 (1992)).
(§3) The hypothalami were weighed and divided into two halves along the sagittal plane and placed in a 12×75 mm glass tube containing 300 μl of Krebs-Ringer Henseleit (KRH) solution. The hypothalami were incubated in a static in vitro incubation system as described previously (Palazzolo et al., Life Sci. 47: 2105-2109 (1990); Palazzolo et al., Life Sci. 51: 1797-1802 (1992)). Briefly, the incubation system consisted of a plexiglass water bath, a magnetic circulator fin, and a thermostat coil. The bath was filled with distilled water and the thermostat was switched on at least an hour before the perfusion. The temperature in the water bath was maintained at 37° C. The magnetically controlled circulator fins stirred the water constantly to maintain a uniform temperature throughout the water bath. The incubation medium, KRH, consisted of 117 mM NaCl, 4.7 mM KCl, 1.2 mM MgSO4, 1.2 mM KH2PO4, 2.5 mM CaCl2, 24.8 mM NaHCO3, 11.1 mM glucose, 0.1 mg/ml ascorbic acid in 1 L of pyrogen free water. During the experiment, the incubation medium was supplied a mixture of 95% oxygen and 5% carbon dioxide constantly through gas inlet lines at a slow and steady rate to avoid turbulence. To stabilize the release of monoamines, each hypothalamus was preincubated in KRH for 60 min. Following this, the hypothalami were incubated for four 60-min periods as described below.
(§4) During the first incubation period, the hypothalami were incubated in KRH for 60 min to measure the basal release of monoamines and their metabolites. During the second incubation period, the hypothalami were incubated in KRH containing 0, 0.1 mM, 1.0 mM, or 10 mM of deprenyl. After this, the hypothalami were rinsed and incubated in KRH alone (without deprenyl) during the third incubation period to measure the residual effects, if any, from the pervious incubation period. In the final incubation period, the hypothalami were incubated with high K^+ KRH, which, had the same composition as the KRH except that it contained 60 mM KCl and 57 mM NaCl, to check the viability of the tissue. Hypothalami were rinsed with KRH in between incubations. After each incubation period, incubation medium was removed and 0.1 M HClO4 was added to it at the ratio of 25:1 (v/v) and was stored at −70° C. until analysis for neurotransmitters by HPLC-EC. At the end of the treatment period, the hypothalami were transferred to microsample vials containing 0.1 M HClO4 and were stored at −70° C. At the time of HPLC analysis, the hypothalami were homogenized in KRH and centrifuged at 1000 RPM for 15 min and the supernatant was used for the measurement of neurotransmitters.
(§5) The HPLC-EC system has been described before (Palazzolo et al., Life Sci. 47: 2105-2109 (1990); Palazzolo et al., Life Sci. 51: 1797-1802 (1992); ThyagaRajan, S.; Meites et al., Endocrinol. 136: 1103-1110 (1995)). Briefly, it consisted of an LC-4B electrochemical detector (Bioanalytical Systems, West Lafayette, Ind.); a phase II, 5 μm ODS reverse phase, C-18 column; a glassy carbon electrode, a C-R6A Chromatopac integrator, a CTO-6A column oven, and an LC-6A pump (Shimadzu, Columbia, Md.). […]

[2] = test system: release of serotonin (5-HT) from the hypothalamus; assay: 5-HT release and content, static in vitro incubation of hypothalami, HPLC-EC; type: cell-based, Sprague-Dawley rats; conditions: for 5-HT release: second incubation period, control 41.0±21; for content of 5-HT at the end of the experiment: p<0.05
Experimental: as §1, §2, §3, §4, §5

[3] = test system: release of 5-hydroxyindoleacetic acid (5-HIAA) from the hypothalamus; assay: 5-HIAA release and content, static in vitro incubation of hypothalami, HPLC-EC; type: cell-based, Sprague-Dawley rats
Experimental: as §1, §2
The hypothalami were weighed and divided into two halves along the sagittal plane and placed in a 12×75 mm glass tube containing 300 μl of Krebs-Ringer Henseleit (KRH) solution. The hypothalami were incubated in a static in vitro incubation system as described previously (Palazzolo et al., Life Sci. 47: 2105-2109 (1990); Palazzolo et al., Life Sci. 51: 1797-1802 (1992)). Briefly, the incubation system consisted of a plexiglass water bath, a magnetic circulator fin, and a thermostat coil. The bath was filled with distilled water and the thermostat was switched on at least an hour before the perfusion. […]

[4] = test system: retired racing female greyhounds; assay: induction of heat in retired racing female greyhounds previously treated with testosterone; type: in vivo, greyhound (canine); conditions: oral in saline, seven animals, saline control 22%
Experimental: Retired racing female greyhounds that were previously treated with testosterone were used in the experiments. Nine animals were used in the control group, and seven animals each were used in the low dose (0.5 mg/kg body weight deprenyl) and the high dose (0.75 mg/kg body weight) groups. Control animals were treated with oral saline solution. Experimental, animals were treated with one of the two doses of deprenyl orally dissolved in saline.

[5] = test system: release of dihydroxyphenylacetic acid (DOPAC) from the hypothalamus; assay: DOPAC release and content, static in vitro incubation of hypothalami, HPLC-EC; type: cell-based, Sprague-Dawley rats; conditions: for concentration of DOPAC in the hypothalamus at the end of the experiment: control 416±176; for DOPAC release: second incubation period; for DOPAC release after removal of deprenyl from the medium: third incubation period
Experimental: as §1, §2, §3, §4, §5

[6] = test system: carcinogen-induced mammary tumor; conditions: rats; cited from earlier work
[7] = test system: serum prolactin; conditions: young and old rats; cited from earlier work
[8] = test system: old male rats; conditions: cited from earlier work
[9] = test system: old acyclic rats; conditions: cited from earlier work
[10] = test system: release of dopamine (DA) from the hypothalamus; assay: dopamine release and content, static in vitro incubation of hypothalami, HPLC-EC; type: cell-based, Sprague-Dawley rats; conditions: for DA release after removal of deprenyl: third incubation period; for DA content of the hypothalami at the end of the experiment: p<0.05
Experimental: as §1, §2, §3, §4, §5

[11] = test system: greyhound bitches; conditions: Bruyette et al., personal communication; cited from earlier work

With `C#CCN(C)C(C)Cc1ccccc1` (stereo not drawn) [deprenyl, phenethylamine, N, alpha-dimethyl-N-2-propynyl] the “content of NE in the hypothalami at the end of the experiment” value (“content of NE in the hypothalami” below) ([1]; 0.1 mM deprenyl group) was 743.3±179, the “NE release (Mean±S.E.)” value ([1]; 0.1 mM deprenyl, second incubation period (KRH+DEP), pretreatment 196.9±43, increase not significant) was 252.3±48 pg/mg hypothalamus and the “NE release (Mean±S.E.)” value ([1]; 0.1 mM group, fourth period, high potassium KRH, p<0.05) was 538.2±142 pg/mg hypothalamus. For the same compound, the “NE release (Mean±S.E.)” value ([1]; 0.1 mM group, third incubation period (KRH alone after deprenyl)) was 185.1±42 pg/mg hypothalamus, the “content of NE in the hypothalami” value ([1]; 1 mM deprenyl group, p<0.05) was 388.1±71 and the “NE release (Mean±S.E.)” value ([1]; 1 mM group, last period, high K+ KRH, p<0.05) was 375.2±92 pg/mg hypothalamus. The “NE release (Mean±S.E.)” value ([1]; 1 mM group, third incubation period (KRH alone)) was 267.7±28 pg/mg hypothalamus, the “content of NE in the hypothalami” value ([1]; 10 mM deprenyl group, p<0.05) was 281.3±91 and the “NE release (Mean±S.E.)” value ([1]; 10 mM deprenyl, second incubation period, pretreatment 132.8±56, p<0.05) was 799.9±141 pg/mg hypothalamus. The “NE release (Mean±S.E.)” value ([1]; 10 mM group, high K+ KRH, not statistically significant) was 222.4±57 pg/mg hypothalamus, the “NE release (Mean±S.E.)” value ([1]; 10 mM group, third incubation period (KRH alone)) was 159.8±41 pg/mg hypothalamus and the 5-HT release ([2]; 0.1 mM deprenyl) was 186.4±62. For the same compound, the “5-HT release on stimulation with high potassium KRH” value ([2]; 0.1 mM group) was “significant increase”, the 5-HT release ([2]; 1 mM deprenyl) was 438.4±85 and the “content of 5-HT at the end of the experiment” value ([2]; 1 mM group compared to the control group) was “significantly reduced”. For the same compound, the 5-HT release ([2]; 10 mM deprenyl) was 670.3±199, the “content of 5-HT at the end of the experiment” value ([2]; 10 mM group compared to the control group) was “significantly reduced” and the “5-HT release upon removal of deprenyl from the medium” value ([2]; third incubation period) was “declined rapidly”. For the same compound, the “content of 5-HIAA in the hypothalami at the end of the experiment” value ([3]; deprenyl treated groups compared to the control group, P<0.05) was “significantly low”, the “release of 5-HIAA” value ([3]; hypothalami incubated with different doses of deprenyl (0.1, 1, 10 mM)) was “dose-dependant decrease” and the “animals that came to heat” value ([4]; higher dose 0.75 mg/kg body weight) was 86%. For the same compound, the “animals that came to heat” value ([4]; low dose 0.5 mg/kg body weight) was “Fifty”, the “concentration of DOPAC in the hypothalamus at the end of the experiment” value (from here on “concentration of DOPAC”) ([5]; 0.1 mM deprenyl group) was 290.0±110 and the DOPAC release ([5]; 0.1 mM deprenyl) was “did not produce any change”. For the same compound, the “concentration of DOPAC” value ([5]; 1 mM deprenyl group, p<0.05) was 86.8±34, the DOPAC release ([5]; 1 mM deprenyl, pretreatment 267.7±46, p<0.01) was 139.6±19 and the “DOPAC release after removal of deprenyl from the medium” value ([5]; 1 mM group) was “remained low”. For the same compound, the “concentration of DOPAC” value ([5]; 10 mM deprenyl group, p<0.05) was 34.3±16, the DOPAC release ([5]; 10 mM deprenyl, pretreatment 285.6±28, p<0.001) was 68.9±20 and the “DOPAC release after removal of deprenyl from the medium” value ([5]; 10 mM group) was “remained low”. The “DOPAC release on stimulation with high potassium KRH” value ([5]; all the deprenyl-treated groups (0.1, 1, 10 mM)) was “did not produce any increase”, the “carcinogen-induced mammary tumor growth” value [6] was “inhibits carcinogen-induced mammary tumor growth” and the serum prolactin concentrations [7] was “decreases serum prolactin concentrations”. For the same compound, the sexual activity [8] was “increase sexual activity”, the “restoration of heat and the estrous cycle” value (“restoration” for short) [9] was “restore heat and the estrous cycle” and the DA release ([10]; 0.1 mM deprenyl, second incubation period, not significantly different from pretreatment) was 125.1±49. The DA release ([10]; 0.1 mM group, high K+ KRH, significant increase) was 393.1±109, the “DA release after removal of deprenyl” value ([10]; 0.1 mM group) was “brought DA release to pretreatment levels” and the DA release ([10]; 1 mM deprenyl, second incubation period, pretreatment 42.9±6) was 154.8±59. For the same compound, the “DA content of the hypothalami at the end of the experiment” value ([10]; 1 mM group compared to 0 mM group) was “significantly less”, the DA release ([10]; 1 mM group, high K+ KRH, significant increase) was 106.8±27 and the “DA release after removal of deprenyl” value ([10]; 1 mM group) was “brought DA release to pretreatment levels”. The DA release ([10]; 10 mM deprenyl, second incubation period) was 197.7±63, the “DA content of the hypothalami at the end of the experiment” value ([10]; 10 mM group compared to 0 mM group) was “significantly less” and the DA release ([10]; 10 mM group, high potassium KRH, not statistically significant from pretreatment) was 85.3±40. For the same compound, the “DA release after removal of deprenyl” value ([10]; 10 mM group) was “returned DA release to basal levels”.
In the case of `N[C@@H](Cc1ccc(O)c(O)c1)C(=O)O` [1-dopa], the “restoration” value [9] is given as “restoration of heat and the estrous cycle”.
For “GnRH: hypothalamic hormone called gonadotropin-releasing hormone (QHWSYGLRPG; ends and bridges not checked; UniProt P01148 24-33, looked up)”, the induction of heat [11] is listed as “unable to induce heat”.
In the case of `CC(C)NNC(=O)c1ccncc1` [Iproniazid, 4-pyridinecarboxyylic acid, 2-(1-methylethyl)hydrazine], the “restoration” value [9] is listed as “reinstate the estrous cycle”.
